According to patent US20080081781A1, “Methods and compositions for the treatment of metabolic syndrome” (priority 2004, published 2008):
Where two headings read alike, the source gives them in different places.

Assays:
[1] = test system: LDLR mRNA; experiment: LDLR mRNA levels in Bel-7402 cells (quantitative RT-PCR); assay type: cell-based, human
Experimental: Bel-7402 cells were treated with 0, 0.5, 1, 2.5, 5, μg/ml of berberine or 2.5, 7.5 and 15 μg/ml of berberine sulfate. The cells were then centrifuged and washed and LDLR mRNA was extracted. LDLR mRNA levels were then measured using scan quantitative RT-PCR, (FIGS. 3 A and B).

[2] = test system: LDLR; experiment: Cell surface LDLR protein on Bel-7402 cells (FACS); assay type: cell-based, human; conditions: Bel-7402 cells treated with 5 μg/ml
Experimental: Bel-7402 cells treated with 5 μg/ml of berberine were detached with cell removal buffer containing EDTA, washed and resuspended in FACS solution (PBS with 0.5% BSA and 0.02% sodium azide) at a density of 1×10^6 cells/ml. Cells were then incubated with monoclonal antibody to LDLR (Santa Cruz Biotechnology, Inc., Santa Cruz, Calif.) at a final dilution of 1:50 and left at room temperature for 1 hour. The cells were then reacted with isotope matched, nonspecific mouse IgG as a control for nonspecific staining. The cells were then washed and stained with FITC conjugated goat antibody to mouse IgG (Santa Cruz Biotechnology, Inc., Santa Cruz, Calif., 1:100 dilution) and the fluorescence intensity was analyzed by FACS (FACSort, Becton Dickinson, Franklin Lakes, N.J.).

[3] = test system: high fat high cholesterol (HFHC) diet rats; experiment: Combination treatment with berberine and simvastatin in HFHC diet rats (Table 8); assay type: in vivo, rat; conditions: oral, after 25 days, daily dose berberine 100 mg/kg, simvastatin 25 mg/kg, combination 100 + 25, average ± standard error
Experimental: Rats were fed a high fat high cholesterol (HFHC) diet for 10 days, and then divided into groups of seven. The rats were then administered berberine or simvastatin, or a combination of berberine and simvastatin orally for 25 days. After 25 days, serum cholesterol, triglyceride and LDL-c levels were measured. […] The combination of simvastatin, and berberine lowered the cholesterol, triglyceride and LDL-c levels further than either alone.

[4] = test system: rat model subjects; experiment: Combinatorial anti-hyperlipidemia efficacy of berberine and lovastatin in rats (Table 9); assay type: in vivo
[5] = test system: InsR; experiment: Cell surface InsR expression in HepG2 cells (flow cytometry); assay type: cell-based, human; conditions: HepG2, 2.5-15 μg/ml, eight hours
Experimental: The effect of berberine was also time-dependent. HepG2 cells were treated with 7.5 μg/ml for 0, 2, 4, 6, 8 or 24 hours and total RNA was isolated as described above for slot blot and RT-PCR assays of InsR mRNA and ACTB mRNA expression. The level of InsR mRNA increased 4 h after exposure of cells to berberine and reached the peak level of 2.5-fold of the control at 8 h; the expression of InsR mRNA remained high for at least 24 h (FIG. 16). HepG2 cells cultured with 0, 2.5, 5, 10 or 15 μg/ml of berberine or normal mouse IgG (FIG. 17) for eight hours then detached, washed and resuspended in FACS solution (PBS with 0.5% BSA and 0.02% sodium azide) at a density of 1×10^6 cells/ml. Cells were then incubated with a monoclonal antibody to InsR (NeoMarkers, Fremont, Calif.) at a final dilution of 1:100 (room temperature, 0.5 h). An isotype-matched, nonspecific mouse IgG was used as a control for nonspecific staining. Then, cells were washed and stained with FITC conjugated goat-anti-mouse IgG (Santa Cruz Biotech, 1:200 dilution). The fluorescent intensity was examined by flow cytometry (FAC Sort, Becton Dickinson, Calif.).

[6] = test system: InsR; experiment: InsR expression in Bel-7402 cells; assay type: cell-based, human; conditions: Bel-7402 compared with HepG2
Excerpt: (§1) The effect of berberine on InsR was further confirmed in another hepatoma cell line, Bel-7402 […] (FIG. 18). […] The expression of PPAR-r mRNA in liver cells was not changed by berberine (data not shown).

[7] = test system: PPAR-r mRNA; experiment: PPAR-r mRNA expression in liver cells; assay type: cell-based; conditions: liver cells (data not shown)
Excerpt: as §1

[8] = test system: InsR gene promoter; experiment: InsR promoter activity, pGL3-1.5kIRP transfected HepG2 cells; assay type: cell-based, human; conditions: pGL3-1.5kIRP transfected HepG2, 10 μg/ml, 8 h
Experimental: The InsR promoter luciferase gene fusion plasmid (pGL3-1.5kIRP) was kindly provided by Dr. Araki E of the Graduate School of Medical Sciences, Kumamoto University, Honjo, Kumamoto, Japan.
After overnight incubation, the cells were treated with DMSO as the solvent control or with 0, 1, 2.5, 5, 7.5 and 10 μg/ml berberine for 8 h. Cell lysates were prepared and luciferase activities were measured using the Luciferase Reporter Gene Assay (Roche Applied Science). The experiment was repeated 4 times.

[9] = test system: patients with type 2 diabetes; assay type: in vivo, human
Excerpt: Ninety-seven hyperglycemic patients (54 males and 43 females) with fasting blood glucose>7 mmol/L and post-prandial blood glucose>11.1 mmol/L were enrolled in a study at the Nanjing First Hospital in Nanjing, China. The patients were asked to end any current treatments for hyperglycemia at least 2 weeks prior to commencement of the study.
Fifty of the patients (male/female, 27/23; age 57±8y) were randomly assigned to be given 0.5 gram twice a day (1g/day total) of berberine (Nanjing Second Pharmaceutics, Inc., Nanjing, China), orally for 2 months. Out of these 50 patients, 25 had hyperlipidemia, 9 had hypertension and 2 had cardiovascular disease. Twenty-six patients (male/female, 15/11; age 56±11 y) were given 1.5 grams of metformin (Double-Crane Pharmaceutical, Inc., Beijing, China) per day, orally for two months. Of these twenty-six patients, 11 had hyperlipidemia, and four had hypertension. The remaining twenty-one patients (male/female, 11/10, age 49±10 y) were given 4 mg per day of rosiglitazone (Glaxowelcome, UK), orally for two months. Of these 21 patients, ten had hyperlipidemia and four had hypertension. Metformin and rosiglitazone served as reference controls as they are standard treatments for type 2 diabetes.
Blood samples were taken prior to the commencement of therapy and after completion of the therapy.

[10] = high fat diet rats treated for 15 days, berberine 80 mg/kg/day, lovastatin 10 mg/kg/day
[11] = high fat diet rats, Day 0 (untreated rats, baseline)
[12] = patients with type 2 diabetes, After treatment (2 months), oral: berberine 1 g/day, metformin 1.5 g/day, rosiglitazone 4 mg/day, Mean ± SE
[13] = patients with type 2 diabetes, Before treatment (baseline), Mean ± SE
[14] = type 2 diabetes patients, 1 g/day orally, 2 months

## COc1ccc2cc3[n+](cc2c1OC)CCc1cc2c(cc1-3)OCO2 [berberine]
[1]; 5 μg/ml
  increase of LDLR mRNA expression: 2.3 fold
[1]; berberine 0.5-5 μg/ml, berberine sulfate 2.5, 7.5, 15 μg/ml
  LDLR mRNA expression, dose dependence: increased LDLR mRNA expression in a dose dependent fashion
[2]
  increase of cell surface LDLR protein expression: 4 times
[3]
  LDL-c: 1.2 ± 0.2 mmol/L
  Total Cholesterol: 3.8 ± 0.5 mmol/L
  Triglyceride: 2.1 ± 0.3 mmol/L
[4]; [10]
  Cholesterol Day 15: 2.75 mmol/L
  LDL Day 15: 1.7 mmol/L
[4]; [11]
  Cholesterol Day 0: 3.65 mmol/L
  LDL Day 0: 2.25 mmol/L
[5]
  cell surface InsR expression: increased cell surface expression
[6]
  InsR expression: identical upregulating effect
[7]
  expression of PPAR-r mRNA: not changed
[8]
  elevation of Luc mRNA level: 2.5 fold
[9]; after treatment, normal range 2.5-13 mlU/L
  serum insulin levels: decreased into the normal range
[9]; human, in vivo
  ALT after treatment: 23±16
  BUN after treatment: 5.7±1.2
  Cr after treatment: 71±14
  r-GT after treatment: 31±23
[9]; [12]
  HbA1c: 6.8 ± 0.2 %
  Triglyceride: 1.4 ± 0.1 mmol/L
[9]; [13]
  FBG (fasting blood glucose): 10.4 ± 0.4 mmol/L
  HbA1c: 8.0 ± 0.3%
  Triglyceride: 1.7 ± 0.1 mmol/L
[9]; type 2 diabetes patients of berberine group (50% also had hyperlipidemia)
  reduction of serum cholesterol: 24%
[9]; [14]
  lowering of fasting blood glucose: 26%
  lowering of hemoglobin A1c (HbA1c): 18%
  lowering of triglycerides: 18%
